Test results taken from patent publication US9388405B2, “Method for identifying a subpopulation of mammalian cells with distinctive ribosome translation profiles” (priority 2009, dated 2016).
Peptide text beside a SMILES is read from it. * marks the point of attachment. Cbz = O=C(OCc1ccccc1)*

Legend:
[1] = test system: Class III HCT116 mTRdm-fLUC 7-5 and 12-16 cell lines; assay: Western blot of fLUC protein in 15-Assay cell extracts; assay type: cell-based, human
Method: The remaining cell suspension was centrifuged as described above and the pellets stored at −70/−80° C. for subsequent protein extraction and Western blot analysis. For protein extraction, cells were thawed on ice and resuspended in equal volumes of the Suspension Buffer (100 mM NaCl, 10 mM TrisHCl [pH 7.6], 1 mM EDTA, 1 mg/mL aprotinin, 100 μg/mL PMSF) and the 2×SDS Buffer (100 mM TrisHCl (pH6.8), 4% SDS, 20% glycerol, 20 mM DTT, 10 mM EDTA, 2× Roche Protease Inhibitor Cocktail). The extracts were homogenized by vigorous mixing and boiling for 3 min. Additional homogenization (when needed) was achieved by passing samples through a syringe fitted with a 26 G needle. At this point, the extracts were either analyzed by SDS-PAGE gel or stored at −80° C.
To produce a near quantitative Western blot analysis, equal protein concentrations are loaded on Western blots. […] The fLUC protein was detected using an anti-fLUC primary antibody (Sigma; 1:1000 dilution). After incubation with a primary antibody and extensive washing with 1×PBS-T, proteins binding the primary antibody were detected by incubation with a horseradish peroxidase (HRP) conjugated anti-rabbit secondary antibody (Amersham; 1:10000 dilution). Following incubation with the secondary antibody and extensive washing, reactive proteins were detected with the ECL reagent system (Amersham) as described by the vendor. […]

HCT116 mTRdm-fLUC cells = assay: 5-Assay / 15-Assay toxin assays, fLUC plate reader (Fold Induction); assay type: cell-based, human; details: 5-Assay, 6 hr, HCT116 mTRdm-fLUC 12-16 subclone #38
Method: The 5-Assay and 15-Assay procedures were applied to cellular pools using either of two growth procedures (e.g. a Cell Count or Confluence growth assay). For a Cell Count assay, cells from the P1 pool dish were counted and passed into a white clear bottom 96-well microtiter tray at a density of 25,000 cells per well; the leftover cells were passed into a passage 2 (P2) dish. Cells in the microtiter plate were allowed to grow for about 40 hr to achieve a ˜75% cell confluence prior to incubation with a toxic agent. Then cells in a microtiter plate were treated with complete growth medium containing either no toxin or an optimal toxin, defined as a single or multiple toxin assay that produces a maximal translational response (taken from Table 3) and incubated for 6 hours at 37° C. Each treatment was performed on triplicate wells.
After toxin incubation, cells were examined by phase contrast microscopy for signs of detachment. If more than ˜10% of cells were detached, the 96-well plates were centrifuged at 1200 rpm for 3 min to pellet the detached cells. The media were removed and replaced with 50 μL of Cell Lysis Buffer (25 mM Tris-phosphate (pH7.8), 10% glycerol, 1% Triton X-100, 1 mg/ml BSA, 2 mM EGTA and 2 mM DTT). Cells were incubated with the Cell Lysis Buffer for 10 min at RT and cell lysis was verified using a phase contrast microscope. To ensure complete lysis, the lysates were vigorously agitated using the multichannel pipettor. Any air bubbles formed as a result of agitation were manually removed with a syringe needle. Luminescence was measured using the FLUOstar Optima (BMG Labtech) microplate reader. To develop luminescence, wells were injected with 5 μL of the D-luciferin solution dissolved in Reaction Buffer (25 mM Glycylglycine (pH 7.8), 15 mM MgSO4, 4 mM EDTA, 15 mM Potassium phosphate, 1 mM DTT, 1 mM Coenzyme A, 6.7 mM ATP and 3.35 mM D-luciferin). After 4 sec with shaking, luminescence values were measured using the lens filter at gains of 2500-4000.
Light values were converted to Fold Induction using the ratio of values produced by treated and untreated cells. The maximal TR-specific translational response produced by the 5-Toxin or 15-Toxin assay was used to assign an optimal toxin assay (maximal translational response) which was subsequently used to screen subclones derived from this pool and to assign a Class designation. […]
In one test, the 5-Assay procedure (Table 3) was applied to HCT116 mTRdm-fLUC 12-16 subclone #30 cells (FIG. 1A). […] Samples were then processed with Lysis buffer and read in a plate reader. […]
Triplicate samples of HCT116 mTRdm-fLUC 12-16 Sub#30 cells were cultured with the two-Toxin assays using a standard plate reader protocol (FIG. 1C). […]

[2] = test system: HEK293 hTRdm-fLuc #53 and HEK293 mTRdm-fLuc #12 subclones; assay: Microtubule disruptor single-Toxin dose response, cap-independent; assay type: cell-based, human; details: cap-dependent and cap-independent assays
Method: The plate reader values were averaged and expressed as the ratio of treated to untreated samples (Fold Induction). Highly similar TR expression profile were produced by the human (hTRdm, top panel) and the mouse (mTRdm, bottom panel) TR cassettes. […] In contrast, significant increases in reporter activity were only observed at nocodazole concentrations greater than 250 nM. As in the cap-dependent assay, taxol-specific reporter increases were only observed at the 2.5 uM and 5 uM doses.
Highly similar cap-independent translational profiles were produced by each TR-expressing cell line (FIGS. 29B and C). […] This contrasted with the nocodazole responses, where significant increases were observed only at concentrations larger than 250 nM. As before, taxol-specific translational increases were only observed at the 2.5 uM and 5 uM doses.

[3] = test system: HEK293 CMV-fLuc subclone #3; assay: Updated 15-Assay / 21-Assay, cap-dependent translational responses; assay type: cell-based, human; details: 21-Assay, single-Toxin (Unknown), 6 hr
Source text: (§1) The dashed line represents the level of translational response in the untreated samples.
Following 6 hr exposure to the compounds, cells were lysed and fLuc protein activity measured using a standard microplate reader assay. The triplicate plate reader values were averaged and expressed as the ratio of treated to untreated samples (Fold Induction). The dashed line represents the level of translational response in the untreated samples.
(§2) The 21-Assay procedure employs the same standard toxins as the Updated 15-Assay protocol. The extra 6 assays involve an unknown or an uncharacterized compound and its pairwise combinations with the five toxins: Unknown, Unknown+TPA, Unknown+Colchcine, Unknown+Bortezomib (Velcade), Unknown+Low dose Calon, and Unknown+Hycamtin (Topotecan).
Application of single-Toxin and two-Toxin assays in the Updated 15-Assay protocol was used to define cap-dependent translational responses in the HEK293 CMV-fLuc #3 subclone (FIG. 30A).
The combinatorial process described in this example provides a system for testing translational regulation by unknown compounds. In this example, a 21-Assay setup is described that employs the single and pairwise combinatorial application of 5 toxins, as in a standard 15-Toxin assay, and the addition of a sixth substance. Inclusion of the sixth substance requires the expansion of the assay group to a total of 21 single- and two-Toxin assays. For this example, a control substance (taxol) was selected from the original 15-Assay system.

[4] = test system: HEK293 mTRdm-fLuc subclone #13 and HEK293 hTRdm-gLuc subclone #79; assay: Updated 15-Assay / 21-Assay, TR translational responses (fLuc, gLuc); assay type: cell-based, human; details: 21-Assay, subclone #13, taxol as Unknown
Method: as §1
As before, secreted Gaussia Luciferase (gLUC) activity was measured in conditioned media 6 hr after drug application and protein activity expressed as the ratio of treated to untreated samples (Fold Induction). The dashed line represents the translational response in untreated cells.
The dashed line represents the translational response produced by untreated cell samples.
Following a 6 hr culture time, secreted gLuc activity was measured in conditioned media using a standard microplate reader assay and expressed as the ratio of treated to untreated samples (Fold Induction). The dashed line represents the level of translational response in the untreated samples. Given that the gLuc protein is secreted into the media, it escapes the cytoplasmic protein turnover processes acting on the fLUC protein. Therefore, any difference in the apparent TR response is a likely result of variation in reporter protein synthesis, secretion or reduced protein turnover.
as §2, with “(Topotecan). […]” for “(Topotecan).”

[5] = test system: MCF7 CMV-fLuc subclones #44 and #48; assay: PKC activator dose response, cap-dependent translation (fLuc); assay type: cell-based, human
Method: Following 6 hr exposure to the Single-Toxin TPA assay, cells were lysed and fLuc protein activity measured using a standard microplate reader assay. The raw values were averaged and expressed as the ratio of treated to untreated samples (Fold Induction).
Dashed lines represent translational response levels produced by a 100 nM TPA Single-Toxin assay. The Bryostatin 1 concentrations (top panel) encompassed the TPA concentrations used in FIG. 27A. […] The Bryostatin 2 dose response curve (bottom panel) employed higher drug concentrations (the maximal tested dose was 5× the largest TPA and Bryostatin 1 amounts). At the highest tested dose (2.5 uM), Bryostatin 2 produced fLuc activity consistent with the level observed with 100 nM TPA.
In addition to measuring cap-dependent and cap-independent translational effects, Class-specific translational activity and toxin-defined actions, the previously described materials and methods allow for a variety of applications designed to detect and characterize agents and processes that regulate ribosome activity. In this example, comparative dose response assays were used to detect cap-dependent and cap-independent translational regulation in MCF7 cells. The basis for this application was the observation that distinct translational responses are produced by compounds at different doses. When an assortment of compounds act on a common molecular target, they can be grouped into a genus of related drugs. By comparing individual species of a compound genus over a defined dose range, differences in translational regulation can be defined. Furthermore, these translational differences can often be linked to biological differences.
In this example (FIG. 27), the three PKC activators produced similar dose response trends in cap-dependent assays. […] However, macrolide lactones produced translational increases that were generally 60-70% of the TPA translational response (FIG. 27B). In fact, a 25 fold increase in Bryostatin 2 concentration (2.5 uM) was needed to produce a translational magnitude similar to the 100 nM TPA assay (FIG. 27B).

[6] = test system: MCF7 mTRdm-fLuc subclones #8, #27, and #45; assay: PKC activator dose response, cap-independent TR translation (fLuc); assay type: cell-based, human
Method: Following 6 hr culture with a TPA single-Toxin assay, cells were lysed and fLuc protein activity measured using a standard microplate reader assay. The plate reader values were averaged and expressed as the ratio of treated to untreated samples (Fold Induction).
As with FIG. 27B, dashed lines represent translational response levels achieved by the 100 nM TPA assay in each cell line. […] A further difference between the cap-dependent and cap-independent assays was the observation that increased Bryostatin 2 concentrations (5× the maximal TPA dose) never produced fLUC activity equivalent to the 100 nM TPA assay. Thus, the Toxin Assay procedure can detect a statistically significant difference in cap-dependent and cap-independent translation in compounds that activate PKC activity.
In the cap-independent assays, a similar dose response trend was observed over a 1 nM to 250 nM range with a translational peak at a 100 nM dose. However, the magnitude of the Bryostatin increases were generally 30% of 100 nM TPA response.

Protein Kinase C (PKC) = details: cited from earlier work

CC(C)C[C@@H](C=O)NC(=O)[C@H](CC(C)C)NC(=O)[C@H](CC(C)C)NC(=O)OCc1ccccc1 [MG132, Z-Leu-Leu-Leu-aldehyde] (Cbz-Leu-Leu-Leu-aldehyde)
fLUC protein levels by Western blot ([1]; HCT116 mTRdm-fLUC 7-5, 15-Assay): significant fLUC protein levels
fLUC protein levels by Western blot ([1]; HCT116 mTRdm-fLUC 12-16, 15-Assay, 6 hrs): extremely high protein levels

CC(=O)O[C@H]1C(=O)[C@@]2(C)[C@H]([C@H](OC(=O)c3ccccc3)[C@]3(O)C[C@H](OC(=O)[C@H](O)[C@@H](NC(=O)c4ccccc4)c4ccccc4)C(C)=C1C3(C)C)[C@]1(OC(C)=O)CO[C@@H]1C[C@@H]2O [Taxol, Paclitaxel]
TR-specific toxin response (HCT116 mTRdm-fLUC cells): Maximal TR-specific toxin responses
response profile compared with other microtubule disruptor drugs [2]: smallest response profile of all the microtubule disruptor drugs tested
effect on cap-dependent fLuc protein production [3]: minimal effect on cap-dependent fluc protein production
effect on fLUC activity [4]: small synergistic increases in fLUC activity in the single-Toxin and the colchicine+taxol, calcimycin+taxol, bortezomib+taxol two-Toxin assays, but not in the TPA+taxol or topotecan+taxol assays

Bryostatin 2
fold increase in concentration needed for translational magnitude similar to the 100 nM TPA assay [5]: 25 fold
dose producing fLuc activity consistent with the level observed with 100 nM TPA ([5]; single-Toxin, highest tested dose): 2.5 µM
% of the 100 nM TPA response ([6]; dose 2.5 uM): ~50%
magnitude of translational response versus 100 nM TPA tests ([6]; single-Toxin): never reached the fLuc activity produced in 100 nM TPA tests
inhibition constant (Ki) relative to the Ki of Bryostatin 1 (Protein Kinase C (PKC)): 10 ×
